Here are results for 1 molecule from US6403616B1, “Chemical process and pharmaceutical formulation” (AstraZeneca AB, priority 1998, dated 2002).

The data set is described as follows: pKa of omeprazole magnesium. Format: physicochemical. From the text:
Preferably, a suspension of omeprazole magnesium should have a pH of 9.5 or above in a 10% (w/w) suspension of the bulk substance.

The term pKa denotes the negative logarithm of the acid dissociation constant. Low values mean a group that gives up its proton readily, high ones a group that holds its proton tightly. `COc1ccc2[n-]c([S+]([O-])Cc3ncc(C)c(OC)c3C)nc2c1.COc1ccc2[n-]c([S+]([O-])Cc3ncc(C)c(OC)c3C)nc2c1.[Mg+2]` (stereo not shown) [omeprazole magnesium] yielded a pKa of 8.8.
